Measured values from US20120009280A1, “METHOD OF REDUCING THE RATE OF DEGRADATION OF A BIOLOGICAL MATERIAL” (Bio-Energy Ingredients Limited, priority 2009, published 2012).

Legend:
total micro-organism [1] = assay: Total microbial (plate) count of spent brewer's / wet distiller's grains stored at ambient temperature; format: cell-based; conditions: dose 10% w/w; distiller's grains not de-watered, Examples 16-18
total micro-organism [2] = assay: as above; format: cell-based; design: total microbial count: unit: cfu/gram
Source text: Samples of spent brewer's grains were drawn from the discharge line of a brewery in South Africa. The samples, packed in dry ice in a cold box, were transported over a distance of approximately 40 kilometres to a laboratory. At the laboratory, the samples were thoroughly mixed and initially split into a first portion (Portion 1) and a second portion (Portion 2). The second portion was about twice the size of the first. Portion 1 was left untreated. Material produced from Portion 1 and Portion 2 is designated below using the code “AR” (as received).
Portion 2 was placed on a clean, standard, laboratory screen deck with 1.4 mm apertures supported from below. As much water as possible was manually squeezed out with a clean flat plastic disc and the sample was then manually remixed after the squeezing. The squeezed material was then split into a third portion (Portion 3) and a fourth portion (Portion 4) of approximately the same size. Material produced from Portion 3 and Portion 4 is designated below using the code “SO” (squeezed).
Portion 4 was added to a high speed kitchen food-shredder and shredded for about two minutes. The shredded material was then returned to the 1.4 mm aperture screen and squeezed again, as described above, and manually remixed again after the second squeezing to produce a shredded and squeezed portion (Portion 5). Material produced from Portion 5 is designated below using the code “SH” (shredded).
(§1) Samples of Portion 1 (“AR”), Portion 3 (“SO”) and Portion 5 (“SH”) were then delivered to a microbiological testing facility about 15 kilometres from the treatment laboratory. Each was tested for initial total microbial, yeast and mould counts, respectively.
(§2) Separate untreated samples were similarly stored under insect-proof screens at ambient temperature for seven days (as shown in Tables 1 and 2). During the trial period the ambient temperature ranged from 11 to 33 degrees C.
After exposure to the environment for seven days, all of the samples were tested at a South African National Accreditation System (SANAS) approved microbiological testing facility. Each was tested for total micro-organism, yeast and mould counts to determine the affect of the various treatments.
Samples of spent brewer's grains were drawn from the discharge line of a brewery in South Africa.
(§3) At the laboratory, the samples were thoroughly mixed and initially split into a first portion (Portion 1) and a second portion (Portion 2). Portion 1 was left untreated. A sample of Portion 1, was delivered immediately to a microbiological testing facility about 15 kilometres away from the treatment laboratory and was tested for initial total microbial, yeast and mould counts, respectively.
Samples from Portion 2 were subjected to treatment with varying amounts of a powdered, commercially-available calcium oxide containing approximately 94% calcium oxide (CaO) as shown in Table 32. The treatments varied from 2.5 to 10% (w/w) calcium oxide addition. The samples were stored in batches (according to the calcium oxide treatment) under insect-proof screens at ambient temperature for fifty six days. […] During the trial period the ambient temperature ranged from 10 to 30 degrees C. As this period was the southern hemisphere spring/early summer, the humidity as well as ambient temperatures varied widely.
(§4) Samples from each treatment were drawn every seven days. No further calcium oxide treatment or agitation took place after the initial mix. In each case the entire sample was isolated and delivered to the microbiological testing facility.
(§5) In this trial the same source of wet distiller's grains (again with now partial water removal prior to treatment) was treated.
as §5

[3] = pH of suspensions of grain samples in distilled water or PBS; conditions: 1% (w/w) in distilled water
Protocol: The untreated sample (A) was compared visually against the corresponding quicklime-treated sample (B).
On Day 7, 10 g amounts of each sample were suspended in either 90 ml PBS or 90 ml sterile distilled water and shaken for 10 minutes. The pH of each suspension was then measured and compared.
On Day 9, 10 g of each sample was suspended in 90 ml PBS and shaken for 10 minutes. The pH was measured.

mould = assay: Mould count of spent brewer's / wet distiller's grains stored at ambient temperature; format: cell-based
Protocol: as §1, §2
(§6) The free moisture content on the initial spent brewer's grains was determined to be 78.1% m/m. After exposure to the environment for seven days, all of the samples were tested at a South African National Accreditation System (SANAS) approved microbiological testing facility. Each was tested for total micro-organism, yeast and mould counts to determine the affect of the various treatments. A similar procedure to that described in K. A. Rosentrater et al, Food Bioprocess Technol (2008) was used for the microbiological evaluation.
as §3, with “respectively. No water removal prior to treatment was done in this experiment as was the case in Example 8 wherein a similar wet material was partially dewatered by pressing and the residue treated with 10% (w/w/) calcium oxide.” for “respectively.”
Samples from Portion 2 were subjected to treatment with varying amounts of a powdered, commercially-available calcium oxide containing approximately 94% calcium oxide (CaO) as shown in Table 32. […] The samples were stored in batches (according to the calcium oxide treatment) under insect-proof screens at ambient temperature for fifty six days. Separate untreated samples were similarly stored under insect-proof screens at ambient temperature for a total of 56 days. During the trial period the ambient temperature ranged from 10 to 30 degrees C. As this period was the southern hemisphere spring/early summer, the humidity as well as ambient temperatures varied widely.
as §6, with “79.4%” for “78.1%”
as §4
The calcium oxide treatment trial described in Example 9 wherein wet distiller's grains were treated with 2.5%, 5% and 10.0% calcium oxide, respectively, versus untreated material was repeated using lower doses of calcium oxide. In this trial the same source of wet distiller's grains (again with now partial water removal prior to treatment) was treated. Also, the same protocol as described in Example 9 was applied, but at lower doses of calcium oxide i.e. 0.5%, 1.0%, 1.5%, 2.0% and 2.5%, respectively, versus untreated material.
In this trial the same source of wet distiller's grains (again with now partial water removal prior to treatment) was treated. Also, the same protocol as described in Example 9 was applied.

yeast = assay: Yeast count of spent brewer's / wet distiller's grains stored at ambient temperature; format: cell-based
[4] = dose 15% w/w, distiller's grains not de-watered, Examples 16-18

## [Ca+2].[O-]CC(O)CO.[O-]CC(O)CO [Ca-DGO (g)]
Total micro-organism [1]
  preservation time with total microbial counts <100 cfu/g: ≧4 weeks
  preservation time with total microbial counts <1000 cfu/g: ≧4 weeks
Total micro-organism [2]; [4]
  preservation time with total microbial counts <100 cfu/g: ≧9 weeks
  preservation time with total microbial counts <1000 cfu/g: ≧9 weeks

## [Ca+2].[O-]CC(O)CO.[O-]CC(O)CO [Ca-DGO (p)]
Total micro-organism [1]
  preservation time with total microbial counts <100 cfu/g: ≧2 weeks
  preservation time with total microbial counts <1000 cfu/g: ≧3 weeks
Total micro-organism [2]; [4]
  preservation time with total microbial counts <10 cfu/g: ≧9 weeks
  preservation time with total microbial counts <100 cfu/g: ≧9 weeks
  preservation time with total microbial counts <1000 cfu/g: ≧9 weeks

## [Ca+2].[O-]CC(O)CO.[O-]CC(O)CO [Ca-DGO powder + granules (1:1)]
[3]; dose 15% (w/w), week 1
  pH: 11.47
[3]; dose 15% (w/w), week 2
  pH: 7.57
[3]; dose 15% (w/w), week 3
  pH: 7.88
[3]; dose 15% (w/w), week 4
  pH: 9.29
[3]; dose 15% (w/w), week 5
  pH: 6.78
[3]; dose 15% (w/w), week 6
  pH: 9.27
[3]; dose 15% (w/w), week 7
  pH: 7.23
[3]; dose 15% (w/w), week 8
  pH: 9.18
[3]; dose 15% (w/w), week 9
  pH: 8.93
Total micro-organism [2]; dose 15% (w/w), week 0
  Total plate count: 540 cfu/gram
Total micro-organism [2]; dose 15% (w/w), week 1
  Total plate count: 50 cfu/gram
Total micro-organism [2]; dose 15% (w/w), week 2
  Total plate count: 710 cfu/gram
Total micro-organism [2]; dose 15% (w/w), week 3
  Total plate count: 70 cfu/gram
Total micro-organism [2]; dose 15% (w/w), week 4
  Total plate count: <10 cfu/gram
Total micro-organism [2]; dose 15% (w/w), week 6
  Total plate count: 150 cfu/gram
Total micro-organism [2]; dose 15% (w/w), week 7
  Total plate count: 660 cfu/gram
Total micro-organism [2]; dose 15% (w/w), week 8
  Total plate count: 4200 cfu/gram
Total micro-organism [2]; dose 15% (w/w), week 9
  Total plate count: 45000 cfu/gram
mould; dose 15% (w/w), week 1
  Mould Count: <10 cfu/gram
mould; dose 15% (w/w), week 2
  Mould Count: <10 cfu/gram
mould; dose 15% (w/w), week 3
  Mould Count: <10 cfu/gram
mould; dose 15% (w/w), week 4
  Mould Count: <10 cfu/gram
mould; dose 15% (w/w), week 5
  Mould Count: <10 cfu/gram
mould; dose 15% (w/w), week 6
  Mould Count: <10 cfu/gram
mould; dose 15% (w/w), week 7
  Mould Count: <10 cfu/gram
mould; dose 15% (w/w), week 8
  Mould Count: <10 cfu/gram
mould; dose 15% (w/w), week 9
  Mould Count: <10 cfu/gram
yeast; dose 15% (w/w), week 1
  Yeast Count: <10 cfu/gram
yeast; dose 15% (w/w), week 2
  Yeast Count: <10 cfu/gram
yeast; dose 15% (w/w), week 3
  Yeast Count: <10 cfu/gram
yeast; dose 15% (w/w), week 4
  Yeast Count: <10 cfu/gram
yeast; dose 15% (w/w), week 5
  Yeast Count: 20 cfu/gram
yeast; dose 15% (w/w), week 6
  Yeast Count: <10 cfu/gram
yeast; dose 15% (w/w), week 7
  Yeast Count: <10 cfu/gram
yeast; dose 15% (w/w), week 8
  Yeast Count: <10 cfu/gram
yeast; dose 15% (w/w), week 9
  Yeast Count: <10 cfu/gram

## [Ca+2].[O-]CC(O)CO.[O-]CC(O)CO [Ca-DGO powder]
[3]; dose 15% (w/w), week 0
  pH: 11.50
[3]; dose 15% (w/w), week 1
  pH: 11.73
[3]; dose 15% (w/w), week 2
  pH: 7.33
[3]; dose 15% (w/w), week 3
  pH: 7.38
[3]; dose 15% (w/w), week 4
  pH: 8.83
[3]; dose 15% (w/w), week 6
  pH: 9.18
[3]; dose 15% (w/w), week 8
  pH: 9.14
[3]; dose 15% (w/w), week 9
  pH: 9.07
Total micro-organism [2]; dose 15% (w/w), week 0
  Total plate count: 40 cfu/gram
Total micro-organism [2]; dose 15% (w/w), week 1
  Total plate count: 80 cfu/gram
Total micro-organism [2]; dose 15% (w/w), week 3
  Total plate count: 100 cfu/gram
Total micro-organism [2]; dose 15% (w/w), week 4
  Total plate count: 10 cfu/gram
Total micro-organism [2]; dose 15% (w/w), week 6
  Total plate count: 50 cfu/gram
Total micro-organism [2]; dose 15% (w/w), week 7
  Total plate count: 40 cfu/gram
Total micro-organism [2]; dose 15% (w/w), week 8
  Total plate count: 70 cfu/gram
Total micro-organism [2]; dose 15% (w/w), week 9
  Total plate count: 10 cfu/gram
mould; dose 15% (w/w), week 0
  Mould Count: <10 cfu/gram
mould; dose 15% (w/w), week 1
  Mould Count: <10 cfu/gram
mould; dose 15% (w/w), week 2
  Mould Count: <10 cfu/gram
mould; dose 15% (w/w), week 3
  Mould Count: <10 cfu/gram
mould; dose 15% (w/w), week 4
  Mould Count: <10 cfu/gram
mould; dose 15% (w/w), week 5
  Mould Count: <10 cfu/gram
mould; dose 15% (w/w), week 6
  Mould Count: <10 cfu/gram
mould; dose 15% (w/w), week 7
  Mould Count: <10 cfu/gram
mould; dose 15% (w/w), week 8
  Mould Count: <10 cfu/gram
mould; dose 15% (w/w), week 9
  Mould Count: 350 cfu/gram
yeast; dose 15% (w/w), week 0
  Yeast Count: <10 cfu/gram
yeast; dose 15% (w/w), week 1
  Yeast Count: <10 cfu/gram
yeast; dose 15% (w/w), week 2
  Yeast Count: <10 cfu/gram
yeast; dose 15% (w/w), week 3
  Yeast Count: <10 cfu/gram
yeast; dose 15% (w/w), week 4
  Yeast Count: <10 cfu/gram
yeast; dose 15% (w/w), week 5
  Yeast Count: <10 cfu/gram
yeast; dose 15% (w/w), week 6
  Yeast Count: <10 cfu/gram
yeast; dose 15% (w/w), week 7
  Yeast Count: <10 cfu/gram
yeast; dose 15% (w/w), week 8
  Yeast Count: <10 cfu/gram
yeast; dose 15% (w/w), week 9
  Yeast Count: <10 cfu/gram

## [Ca+2].[O-]CC(O)CO.[O-]CC(O)CO [calcium diglyceroxide granules, calcium diglyceroxide]
Total micro-organism [2]; granules 10% (w/w), 2 week time point
  total microbial count: below 10
Total micro-organism [2]; granules 10% (w/w), 3 week time point
  total microbial count: 540
Total micro-organism [2]; granules 10% (w/w), 4 week time point
  total microbial count: 60
Total micro-organism [2]; granules 10% (w/w), 5 week time point
  total microbial count: 650
Total micro-organism [2]; granules 10% (w/w), Example 18
  effective period: ~7 weeks

## Ca(OH2
[3]; 6.6% (w/w) powder, week 1
  pH: 11.55
[3]; 6.6% (w/w) powder, week 2
  pH: 11.26
[3]; 6.6% (w/w) powder, week 3
  pH: 12.10
[3]; 6.6% (w/w) powder, week 4
  pH: 8.23
[3]; 6.6% (w/w) powder, week 5
  pH: 11.47
Total micro-organism [2]; 6.6% (w/w) powder, week 1
  Total plate count: 420 cfu/gram
Total micro-organism [2]; 6.6% (w/w) powder, week 2
  Total plate count: 140 cfu/gram
Total micro-organism [2]; 6.6% (w/w) powder, week 3
  Total plate count: 640 cfu/gram
Total micro-organism [2]; 6.6% (w/w) powder, week 4
  Total plate count: 170 cfu/gram
Total micro-organism [2]; 6.6% (w/w) powder, week 5
  Total plate count: 20 cfu/gram
mould; 6.6% (w/w) powder, week 1
  Mould Count: 10 cfu/gram
mould; 6.6% (w/w) powder, week 2
  Mould Count: 10 cfu/gram
mould; 6.6% (w/w) powder, week 3
  Mould Count: 10 cfu/gram
mould; 6.6% (w/w) powder, week 4
  Mould Count: 10 cfu/gram
mould; 6.6% (w/w) powder, week 5
  Mould Count: 10 cfu/gram
yeast; 6.6% (w/w) powder, week 1
  Yeast Count: 10 cfu/gram
yeast; 6.6% (w/w) powder, week 2
  Yeast Count: 10 cfu/gram
yeast; 6.6% (w/w) powder, week 3
  Yeast Count: 10 cfu/gram
yeast; 6.6% (w/w) powder, week 4
  Yeast Count: 120 cfu/gram
yeast; 6.6% (w/w) powder, week 5
  Yeast Count: 10 cfu/gram
